Results as given in publication PMC6302903, “Protein and Chemical Determinants of BL-1249 Action and Selectivity for K2P Channels” (ACS Chemical Neuroscience, 2018).

Experiments:
Type in all cases: cell-based
Conditions in all cases: Xenopus oocytes
TRAAK/EK-1 M3-C = target: T1, TRAAK/EK-1 M3-C (Mus musculus, UniProt O88454+P97438, A173T/A231F/D223G/E202D/F190V/F242V/G166T/G224S/G226I/H162N/I179F/I208V/K200A/L167K/L171I/L175I/L177I/L182V/L186A/L235V/M195I/N228Y/N256D/P164S/P165Q/P221A/P230D/Q227E/Q233K/S170I/S193K/S197G/S229L/S249A/T187L/T189A/T225D/T252S/T253M/V168I/V174I/V191I/V209I/V214I/Y194H); assay: TEVC of chimera TRAAK/EK-1 M3-C
T1 construct: Trp161 (TRAAK/EK-1 M3-C); expressed in transfected cells; host or cells: Xenopus laevis oocytes, mRNA injected; chimera built by Gibson assembly
T1 sequence (O88454+P97438 fused with the stated changes): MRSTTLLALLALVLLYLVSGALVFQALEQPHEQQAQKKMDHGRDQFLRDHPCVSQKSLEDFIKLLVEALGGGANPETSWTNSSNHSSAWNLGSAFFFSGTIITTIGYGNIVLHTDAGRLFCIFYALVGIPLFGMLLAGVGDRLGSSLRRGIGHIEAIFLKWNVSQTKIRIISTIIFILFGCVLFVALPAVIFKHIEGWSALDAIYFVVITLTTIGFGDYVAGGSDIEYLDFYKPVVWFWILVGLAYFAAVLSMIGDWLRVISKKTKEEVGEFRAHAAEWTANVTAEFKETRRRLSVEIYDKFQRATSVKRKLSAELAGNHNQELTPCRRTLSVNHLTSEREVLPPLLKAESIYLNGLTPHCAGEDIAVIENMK

TREK-1/AAK M4-C = target: T2, TREK-1/AAK M4-C (Mus musculus, UniProt O88454+P97438); assay: TEVC of chimera TREK-1/AAK M4-C
T2 construct: Y272 (TREK-1/AAK M4-C); expressed in transfected cells; host or cells: Xenopus laevis oocytes, mRNA injected; chimera built by Gibson assembly
T2 sequence (P97438+O88454 with tags, fused parts or gaps P97438:V273L/P97438:V280F/P97438:A287S/P97438:S290T/P97438:M291T/P97438:D294N): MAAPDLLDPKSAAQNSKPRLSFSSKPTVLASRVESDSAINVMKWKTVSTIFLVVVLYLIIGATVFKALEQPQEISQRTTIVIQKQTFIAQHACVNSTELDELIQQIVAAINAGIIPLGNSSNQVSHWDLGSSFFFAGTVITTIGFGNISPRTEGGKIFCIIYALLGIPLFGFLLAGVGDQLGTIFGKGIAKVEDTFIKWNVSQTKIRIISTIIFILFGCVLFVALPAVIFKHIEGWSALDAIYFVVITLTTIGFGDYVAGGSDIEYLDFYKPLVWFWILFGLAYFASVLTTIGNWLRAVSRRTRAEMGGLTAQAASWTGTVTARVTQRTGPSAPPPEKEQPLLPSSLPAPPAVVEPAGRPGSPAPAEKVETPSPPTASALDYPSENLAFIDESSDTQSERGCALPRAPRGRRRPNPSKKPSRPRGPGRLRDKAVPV

TRAAK/EK-1 M4-C = target: T3, TRAAK/EK-1 M4-C (Mus musculus, UniProt O88454+P97438, F242V/L235V/N256D/S249A/T252S/T253M); assay: TEVC of chimera TRAAK/EK-1 M4-C
T3 construct: and Tyr234 K2P4.1(TRAAK); expressed in transfected cells; host or cells: Xenopus laevis oocytes, mRNA injected; chimera built by Gibson assembly
T3 sequence (O88454+P97438 fused with the stated changes): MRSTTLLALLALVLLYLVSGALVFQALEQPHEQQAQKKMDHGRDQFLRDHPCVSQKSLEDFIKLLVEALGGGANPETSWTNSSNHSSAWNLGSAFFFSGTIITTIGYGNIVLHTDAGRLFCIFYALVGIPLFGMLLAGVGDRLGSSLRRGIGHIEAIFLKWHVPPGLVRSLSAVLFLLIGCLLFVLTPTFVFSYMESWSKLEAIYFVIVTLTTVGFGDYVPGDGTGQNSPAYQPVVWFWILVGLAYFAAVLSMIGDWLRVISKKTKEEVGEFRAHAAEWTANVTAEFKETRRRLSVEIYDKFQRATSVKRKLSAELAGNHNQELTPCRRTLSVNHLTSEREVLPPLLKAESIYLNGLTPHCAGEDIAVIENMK

TREK-1/AAK M3-C = target: T4, TREK-1/AAK M3-C (Mus musculus, UniProt O88454+P97438); assay: TEVC of chimera TREK-1/AAK M3-C
T4 construct: Trp199 (TREK-1/AAK M3-C); expressed in transfected cells; host or cells: Xenopus laevis oocytes, mRNA injected; chimera built by Gibson assembly
T4 sequence (P97438+O88454 with tags, fused parts or gaps P97438:N200H/P97438:S202P/P97438:Q203P/P97438:T204G/P97438:K205L/P97438:I206V/P97438:I208S/P97438:I209L/P97438:T211A/P97438:I212V/P97438:I213L/P97438:I215L/P97438:F217I/P97438:V220L/P97438:A224L/P97438:L225T/P97438:A227T/P97438:V228F/P97438:I229V/P97438:K231S/P97438:H232Y/P97438:I233M/P97438:G235S/P97438:A238K/P97438:D240E/P97438:V246I/P97438:I247V/P97438:I252V/P97438:A259P/P97438:G261D/P97438:S262G/P97438:D263T/P97438:I264G/P97438:E265Q/P97438:Y266N/P97438:L267S/P97438:D268P/P97438:F269A/P97438:K271Q/P97438:V273L/P97438:V280F/P97438:A287S/P97438:S290T/P97438:M291T/P97438:D294N): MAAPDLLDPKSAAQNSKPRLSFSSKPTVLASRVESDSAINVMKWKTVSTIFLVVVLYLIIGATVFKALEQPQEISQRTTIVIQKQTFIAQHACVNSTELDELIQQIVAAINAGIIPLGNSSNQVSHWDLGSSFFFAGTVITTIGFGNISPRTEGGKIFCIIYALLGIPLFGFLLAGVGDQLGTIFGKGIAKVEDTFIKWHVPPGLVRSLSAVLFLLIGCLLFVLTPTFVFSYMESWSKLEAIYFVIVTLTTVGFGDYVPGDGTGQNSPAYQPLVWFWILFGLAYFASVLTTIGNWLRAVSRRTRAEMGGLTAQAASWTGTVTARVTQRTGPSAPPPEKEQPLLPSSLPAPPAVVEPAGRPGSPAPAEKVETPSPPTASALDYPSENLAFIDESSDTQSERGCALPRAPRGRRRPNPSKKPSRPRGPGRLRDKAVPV

TRAAK/EK-1 M2-C = target: T5, TRAAK/EK-1 M2-C (Mus musculus, UniProt O88454+P97438, A151S/D143N/F160Y/H141A/P165L/Q138H/R166H/S147A/S164V/V139S/V154I); assay: TEVC of chimera TRAAK/EK-1 M2-C
T5 construct: Thr114 (TRAAK/EK-1 M2-C); expressed in transfected cells; host or cells: Xenopus laevis oocytes, mRNA injected; chimera built by Gibson assembly
T5 sequence (O88454+P97438 fused with the stated changes): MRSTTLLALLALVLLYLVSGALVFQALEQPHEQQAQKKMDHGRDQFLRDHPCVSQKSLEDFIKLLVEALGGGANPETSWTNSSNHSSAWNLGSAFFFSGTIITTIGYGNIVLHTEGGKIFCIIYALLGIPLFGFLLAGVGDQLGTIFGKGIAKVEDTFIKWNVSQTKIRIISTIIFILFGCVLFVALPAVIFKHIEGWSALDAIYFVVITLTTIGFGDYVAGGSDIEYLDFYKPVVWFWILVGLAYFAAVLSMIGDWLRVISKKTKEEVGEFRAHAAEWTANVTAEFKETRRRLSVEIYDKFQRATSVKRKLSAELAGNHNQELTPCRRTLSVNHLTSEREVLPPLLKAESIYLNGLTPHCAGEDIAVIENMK

| SMILES | EC50 (TRAAK/EK-1 M3-C) | EC50 (TREK-1/AAK M4-C) | EC50 (TRAAK/EK-1 M4-C) | EC50 (TREK-1/AAK M3-C) | EC50 (TRAAK/EK-1 M2-C) |
| --- | --- | --- | --- | --- | --- |
| CS(=O)(=O)Nc1ccc(C(=O)NCc2ccc(Cl)cc2Cl)cc1 [ML335] | 13 ± 2 µM | 2 ± 0.6 µM | > 100 µM | > 100 µM | 8 ± 1 µM |
| c1ccc(-c2nnn[nH]2)c(Nc2cccc3c2CCCC3)c1 [BL-1249, (5,6,7,8-tetrahydro-naphthalen-1-yl)-[2-(1H-tetrazol-5-yl)-phenyl]-amine] | 18 ± 2 µM | 19 ± 3 µM | 45 ± 2 µM | 28 ± 2 µM | 28 ± 5 µM |
